Several values for one entry are separate records, joined by “and”; a condition that tells them apart may be missing. Equal values may be shown once. Toxic doses and inconclusive results are not listed. Cut-off read from the data, not from the text of the source: active = T/C of 150% or more; inactive = T/C below 125%.
Tested on: L1210 leukemia ip in BDF1 mice, survival T/C
Assay: NCI In Vivo Anticancer Drug Screen. Data for tumor model L1210 Leukemia (intraperitoneal) in B6D2F1 (BDF1) mice
Details: endpoint: mean survival time, higher = longer survival
Summary of the method: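 Mice bearing the transplanted tumor received compound or vehicle. Survival of the treated group was divided by that of the vehicle-treated control group to give the ratio.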

[1] = dose: 25.0 mg/kg/injection, schedule: Q04DX003 (ip), vehicle: saline with Tween-80
[2] = dose: 50.0 mg/kg/injection, schedule: Q01DX009 (ip), vehicle: saline with Tween-80
[3] = dose: 50.0 mg/kg/injection, schedule: Q04DX003 (ip), vehicle: saline with Tween-80
[4] = dose: 25.0 mg/kg/injection, schedule: Q04DX002 (ip), vehicle: Klucel (hydroxypropylcellulose) (HPC)
[5] = dose: 50.0 mg/kg/injection, schedule: Q04DX002 (ip), vehicle: Klucel (hydroxypropylcellulose) (HPC)
[6] = dose: 100.0 mg/kg/injection, schedule: Q04DX002 (ip), vehicle: Klucel (hydroxypropylcellulose) (HPC)
[7] = dose: 100.0 mg/kg/injection, schedule: Q01DX009 (ip), vehicle: saline with Tween-80
[8] = dose: 200.0 mg/kg/injection, schedule: Q01DX009 (ip), vehicle: saline with Tween-80
[9] = dose: 100.0 mg/kg/injection, schedule: Q01DX009 (ip), vehicle: Klucel (hydroxypropylcellulose) (HPC)
[10] = dose: 200.0 mg/kg/injection, schedule: Q01DX009 (ip), vehicle: Klucel (hydroxypropylcellulose) (HPC)
[11] = dose: 100.0 mg/kg/injection, schedule: Q04DX003 (ip), vehicle: saline with Tween-80
[12] = dose: 200.0 mg/kg/injection, schedule: Q04DX003 (ip), vehicle: saline with Tween-80
[13] = dose: 400.0 mg/kg/injection, schedule: Q04DX003 (ip), vehicle: saline with Tween-80
[14] = dose: 100.0 mg/kg/injection, schedule: Q01DX001 (ip), vehicle: saline
[15] = dose: 200.0 mg/kg/injection, schedule: Q01DX001 (ip), vehicle: saline
[16] = dose: 400.0 mg/kg/injection, schedule: Q01DX001 (ip), vehicle: saline
[17] = dose: 100.0 mg/kg/injection, schedule: Q04DX003 (ip), vehicle: Klucel (hydroxypropylcellulose) (HPC)
[18] = dose: 200.0 mg/kg/injection, schedule: Q04DX003 (ip), vehicle: Klucel (hydroxypropylcellulose) (HPC)
[19] = dose: 200.0 mg/kg/injection, schedule: Q04DX002 (ip), vehicle: Klucel (hydroxypropylcellulose) (HPC)
[20] = dose: 400.0 mg/kg/injection, schedule: Q04DX002 (ip), vehicle: Klucel (hydroxypropylcellulose) (HPC)
[21] = dose: 100.0 mg/kg/injection, schedule: Q01DX001 (ip), vehicle: carboxymethylcellulose (CMC)
[22] = dose: 100.0 mg/kg/injection, schedule: Q04DX003 (ip), vehicle: saline
[23] = dose: 200.0 mg/kg/injection, schedule: Q04DX003 (ip), vehicle: saline
[24] = dose: 400.0 mg/kg/injection, schedule: Q04DX003 (ip), vehicle: saline

Measured: T/C

CCCCCCOC(CN)C(Cl)(Cl)Cl (stereo not drawn)
inactive: dose: 12.5 mg/kg/injection, schedule: Q04DX003 (ip), vehicle: saline with Tween-80 107 % of control | dose: 25.0 mg/kg/injection, schedule: Q01DX009 (ip), vehicle: saline with Tween-80 116 % of control | [1] 109 % of control | [2] 97 % of control | [3] 102 % of control

CNC(=O)CCCOC(=O)c1ccc([N+](=O)[O-])cc1
inactive: [4] 108 % of control | [5] 108 % of control | [6] 104 % of control

COc1ccc(C2CCCCCC2OC(=O)c2ccc([N+](=O)[O-])cc2)c(OC)c1OC (stereo not drawn)
inactive: dose: 100.0 mg/kg/injection, schedule: Q01DX001 (ip), vehicle: other 96 % of control | dose: 200.0 mg/kg/injection, schedule: Q01DX001 (ip), vehicle: other 106 % of control | dose: 400.0 mg/kg/injection, schedule: Q01DX001 (ip), vehicle: other 96 % of control

COc1cc2c(cc1OC)C(c1ccc(O)c(O)c1)CNC2 (stereo not drawn)
inactive: [2] 101 % of control | [7] 100 % of control | [8] 95 % of control

CN(C)N=C1CCCC1
inactive: dose: 50.0 mg/kg/injection, schedule: Q01DX009 (ip), vehicle: saline 103 % of control | dose: 100.0 mg/kg/injection, schedule: Q01DX009 (ip), vehicle: saline 103 % of control

NS(=O)(=O)c1ccc(S(=O)(=O)N2CCCCC2)cc1
inactive: [9] 90 % of control | [10] 96 % of control

O=C(O)c1ccccc1/C=C/c1ccccc1
inactive: [7] 96 % of control | [11] 104 % of control | [8] 100 % of control | [12] 101 % of control | dose: 400.0 mg/kg/injection, schedule: Q01DX009 (ip), vehicle: saline with Tween-80 96 % of control | [13] 101 % of control

O=C(C1=Cc2ccccc2OC1)N1CCN(c2ccccc2)CC1
inactive: dose: 100.0 mg/kg/injection, schedule: Q04DX003 (ip), vehicle: gum acacia 103 % of control | dose: 200.0 mg/kg/injection, schedule: Q04DX003 (ip), vehicle: gum acacia 95 % of control | dose: 400.0 mg/kg/injection, schedule: Q04DX003 (ip), vehicle: gum acacia 101 % of control

CN(C)C(CCN1CCCCC1)CN1CCCCC1 (stereo not drawn)
inactive: [14] 100 % of control | [15] 96 % of control | [16] 90 % of control

CC(C)N1C(=O)c2cccc3c(Br)ccc(c23)C1=O
inactive: [17] 96 % of control | [18] 97 % of control

CC(=O)Nc1ccc(Oc2ccccc2)cc1
inactive: dose: 50.0 mg/kg/injection, schedule: Q01DX009 (ip), vehicle: Klucel (hydroxypropylcellulose) (HPC) 102 % of control | [9] 101 % of control | [17] 95 % of control and 101 % of control | [10] 106 % of control | [18] 97 % of control and 100 % of control | dose: 400.0 mg/kg/injection, schedule: Q04DX003 (ip), vehicle: Klucel (hydroxypropylcellulose) (HPC) 102 % of control

O=C(CCCC(=O)N/N=C/c1c(O)ccc2ccccc12)N/N=C/c1c(O)ccc2ccccc12
inactive: dose: 50.0 mg/kg/injection, schedule: Q01DX001 (ip), vehicle: saline 96 % of control | [14] 96 % of control | [15] 96 % of control | [16] 93 % of control

O=[N+]([O-])c1ccc(Cc2ccc([N+](=O)[O-])cc2)cc1
inactive: [11] 102 % of control | [12] 109 % of control | [13] 98 % of control

CC(=O)OC1CCC2(C)C(=CC=C3C2CCC2(C)C(C(C)=O)CCC32)C1 (stereo not drawn)
inactive: [6] 86 % of control | [19] 110 % of control | [20] 104 % of control

Cc1cc(C)c(C(=O)C(=S)N2CCOCC2)c(C)c1
inactive: dose: 200.0 mg/kg/injection, schedule: Q01DX009 (ip), vehicle: acetone 90 % of control | dose: 400.0 mg/kg/injection, schedule: Q01DX009 (ip), vehicle: acetone 96 % of control

Cc1ccc(CSC(=N)N)cc1C
inactive: [4] 98 % of control | [5] 103 % of control | [6] 101 % of control

CN1CCc2cc3c(cc2C(=O)Cc2ccc4c(c2C1)OCO4)OCO3
inactive: [1] 103 % of control | [3] 97 % of control | [21] 100 % of control | [11] 102 % of control

COc1ccc2c(c1OC)CC[N+]1=C3CCCCC3=C(N)CC21 (stereo not drawn)
inactive: dose: 100.0 mg/kg/injection, schedule: Q01DX001 (ip), vehicle: saline with Tween-80 97 % of control | dose: 200.0 mg/kg/injection, schedule: Q01DX001 (ip), vehicle: saline with Tween-80 97 % of control | dose: 400.0 mg/kg/injection, schedule: Q01DX001 (ip), vehicle: saline with Tween-80 96 % of control

Nc1nc(N)c(CCCOc2ccccc2)c(-c2ccccc2)n1
inactive: [6] 105 % of control | [19] 101 % of control | [20] 101 % of control

O=[N+]([O-])c1ccc(/C=N/c2nn[nH]n2)cc1 (tested in a mixture with another compound)
inactive: [22] 98 % of control | [23] 100 % of control | [24] 96 % of control

O=C(O)c1ccc(OCCOc2ccc([N+](=O)[O-])cc2)c(Cl)c1
inactive: [21] 95 % of control and 105 % of control | dose: 100.0 mg/kg/injection, schedule: Q01DX009 (ip), vehicle: carboxymethylcellulose (CMC) 92 % of control and 89 % of control | dose: 100.0 mg/kg/injection, schedule: Q04DX002 (ip), vehicle: gum acacia 101 % of control | dose: 100.0 mg/kg/injection, schedule: Q04DX003 (ip), vehicle: carboxymethylcellulose (CMC) 95 % of control and 86 % of control | dose: 200.0 mg/kg/injection, schedule: Q01DX001 (ip), vehicle: carboxymethylcellulose (CMC) 101 % of control and 103 % of control | dose: 200.0 mg/kg/injection, schedule: Q01DX009 (ip), vehicle: carboxymethylcellulose (CMC) 93 % of control and 100 % of control | dose: 200.0 mg/kg/injection, schedule: Q04DX002 (ip), vehicle: gum acacia 98 % of control and 99 % of control | dose: 200.0 mg/kg/injection, schedule: Q04DX003 (ip), vehicle: carboxymethylcellulose (CMC) 95 % of control and 90 % of control | dose: 400.0 mg/kg/injection, schedule: Q01DX001 (ip), vehicle: carboxymethylcellulose (CMC) 100 % of control | dose: 400.0 mg/kg/injection, schedule: Q04DX002 (ip), vehicle: gum acacia 94 % of control and 98 % of control | dose: 400.0 mg/kg/injection, schedule: Q04DX003 (ip), vehicle: carboxymethylcellulose (CMC) 90 % of control and 91 % of control

O=C(O)C1CCCN1CCc1ccccc1 (stereo not drawn)
inactive: [22] 107 % of control | [23] 105 % of control | [24] 97 % of control

CN=[N+]([O-])c1ccccc1
inactive: [14] 100 % of control | [15] 100 % of control | [16] 97 % of control

Source: PubChem BioAssay AID248 (DTP/NCI, 2004)
